Experimental data as given in PubChem BioAssay AID256 (DTP/NCI, 2004).
“And” between values parts separate entries of the source, which are not always exact repeats. Identical values can stand only once. Inconclusive results and toxic doses are left out.

System: CD2F1 mice, L1210 leukemia ip, survival T/C
Test: NCI In Vivo Anticancer Drug Screen. Data for tumor model L1210 Leukemia (intraperitoneal) in CD2F1 (CDF1) mice
Details: higher = longer survival
Summary of the method: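 Ratio T/C, where T is the treated-group value and C the vehicle-dosed control value, from mice implanted with a transplantable tumor.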

[1] = endpoint: mean survival time, dose: 200.0 mg/kg/injection, schedule: Q01DX001 (ip), vehicle: saline with Tween-80
[2] = endpoint: mean survival time, dose: 400.0 mg/kg/injection, schedule: Q01DX001 (ip), vehicle: saline with Tween-80
[3] = endpoint: mean survival time, dose: 25.0 mg/kg/injection, schedule: Q04DX003 (ip), vehicle: saline with Tween-80
[4] = endpoint: mean survival time, dose: 50.0 mg/kg/injection, schedule: Q04DX003 (ip), vehicle: saline with Tween-80
[5] = endpoint: mean survival time, dose: 100.0 mg/kg/injection, schedule: Q04DX003 (ip), vehicle: saline with Tween-80
[6] = endpoint: mean survival time, dose: 200.0 mg/kg/injection, schedule: Q04DX003 (ip), vehicle: saline with Tween-80
[7] = endpoint: mean survival time, dose: 100.0 mg/kg/injection, schedule: Q01DX009 (ip), vehicle: saline with Tween-80
[8] = endpoint: mean survival time, dose: 200.0 mg/kg/injection, schedule: Q01DX009 (ip), vehicle: saline with Tween-80
[9] = endpoint: mean survival time, dose: 400.0 mg/kg/injection, schedule: Q01DX009 (ip), vehicle: saline with Tween-80
[10] = endpoint: mean survival time, dose: 400.0 mg/kg/injection, schedule: Q04DX003 (ip), vehicle: saline with Tween-80
[11] = endpoint: mean survival time, dose: 100.0 mg/kg/injection, schedule: Q04DX003 (ip), vehicle: saline
[12] = endpoint: mean survival time, dose: 6.25 mg/kg/injection, schedule: Q04DX003 (ip), vehicle: saline with Tween-80
[13] = endpoint: mean survival time, dose: 12.5 mg/kg/injection, schedule: Q04DX003 (ip), vehicle: saline with Tween-80
[14] = endpoint: mean survival time, dose: 25.0 mg/kg/injection, schedule: Q01DX009 (ip), vehicle: saline with Tween-80
[15] = endpoint: mean survival time, dose: 8.0 mg/kg/injection, schedule: Q01DX009 (ip), vehicle: saline with Tween-80
[16] = endpoint: mean survival time, dose: 50.0 mg/kg/injection, schedule: Q01DX009 (ip), vehicle: saline with Tween-80

CCC1(O)C(=O)OCc2c1cc1n(c2=O)Cc2cc3ccc([N+](=O)[O-])cc3nc2-1 (configuration not stated)
T/C (endpoint: median survival time, dose: 10.0 mg/kg/injection, schedule: Q04DX002 (ip), vehicle: saline with Tween-80): 114 % of control

N=C(N)N(CCS)CC(=O)O
T/C [1]: 87 % of control
T/C [2]: 90 % of control

CC1(C)N=C(N)N=C(N)N1c1ccc(Cl)c(C(F)(F)F)c1
T/C [3]: 109 % of control
T/C [4]: 124 % of control

O/N=C/c1ccc(O)cc1
T/C [4]: 94 % of control
T/C [5]: 91 % of control
T/C [6]: 97 % of control

N#C/C(=C\c1cc(Cl)cc(Cl)c1O)C(/C(C#N)=C/c1cc(Cl)cc(Cl)c1O)c1ccc2c(c1)OCO2 (configuration not stated)
T/C [7]: 101 % of control
T/C [5]: 101 % of control
T/C [8]: 94 % of control
T/C [6]: 97 % of control
T/C [9]: 105 % of control
T/C [10]: 103 % of control

CC1(C)N=C(N)N=C(N)N1c1cccc(C#N)c1
T/C (endpoint: mean survival time, dose: 17.0 mg/kg/injection, schedule: Q01DX009 (ip), vehicle: saline): 112 % of control
T/C (endpoint: mean survival time, dose: 25.0 mg/kg/injection, schedule: Q01DX009 (ip), vehicle: saline): 117 % of control
T/C (endpoint: mean survival time, dose: 37.5 mg/kg/injection, schedule: Q01DX009 (ip), vehicle: saline): 120 % of control
T/C (endpoint: mean survival time, dose: 75.0 mg/kg/injection, schedule: Q01DX001 (ip), vehicle: saline): 104 % of control
T/C (endpoint: mean survival time, dose: 150.0 mg/kg/injection, schedule: Q01DX001 (ip), vehicle: saline): 113 % of control

O=c1ccn(C2OC(CO)C(O)C2C[N+](=O)[O-])c(=O)[nH]1 (configuration not stated)
T/C (endpoint: mean survival time, dose: 12.5 mg/kg/injection, schedule: Q01DX005 (ip), vehicle: water): 96 % of control
T/C (endpoint: mean survival time, dose: 25.0 mg/kg/injection, schedule: Q01DX005 (ip), vehicle: water): 97 % of control
T/C (endpoint: mean survival time, dose: 50.0 mg/kg/injection, schedule: Q01DX005 (ip), vehicle: water): 94 % of control
T/C (endpoint: mean survival time, dose: 100.0 mg/kg/injection, schedule: Q01DX005 (ip), vehicle: water): 91 % of control
T/C (endpoint: mean survival time, dose: 200.0 mg/kg/injection, schedule: Q01DX005 (ip), vehicle: water): 88 % of control

CC1=Nc2cc(C)c(C)cc2N2C1=CC1=C(C(=O)c3cc4ccccc4cc3C1=O)C2C (configuration not stated)
T/C [3]: 97 % of control
T/C [4]: 108 % of control
T/C [11]: 110 % of control
T/C (endpoint: mean survival time, dose: 200.0 mg/kg/injection, schedule: Q04DX003 (ip), vehicle: saline): 107 % of control

CN1CC2(c3ccccc3)CN(C)CC(c3ccccc3)(C1)C2=O
T/C (endpoint: mean survival time, dose: 6.25 mg/kg/injection, schedule: Q01DX009 (ip), vehicle: saline with Tween-80): 98 % of control
T/C [12]: 98 % of control
T/C (endpoint: mean survival time, dose: 12.5 mg/kg/injection, schedule: Q01DX009 (ip), vehicle: saline with Tween-80): 95 % of control
T/C [13]: 98 % of control
T/C [14]: 103 % of control
T/C [3]: 92 % of control

CCCCCCCCCCCCCCCCCC(=O)OCC(=O)OCC(=O)[C@]1(O)Cc2c(O)c3c(c(O)c2[C@@H](OC2CC(N)C(O)C(C)O2)C1)C(=O)c1c(OC)cccc1C3=O (some centres not stated)
T/C (endpoint: mean survival time, dose: 0.37 mg/kg/injection, schedule: Q01DX009 (ip), vehicle: saline): 116 % of control
T/C (endpoint: mean survival time, dose: 0.39 mg/kg/injection, schedule: Q01DX005 (ip), vehicle: water): 122 % of control and 112 % of control
T/C (endpoint: mean survival time, dose: 0.75 mg/kg/injection, schedule: Q01DX009 (ip), vehicle: saline): 115 % of control
T/C (endpoint: mean survival time, dose: 0.78 mg/kg/injection, schedule: Q01DX005 (ip), vehicle: water): 118 % of control and 119 % of control
T/C (endpoint: mean survival time, dose: 1.5 mg/kg/injection, schedule: Q01DX009 (ip), vehicle: saline): 115 % of control
T/C (endpoint: mean survival time, dose: 3.13 mg/kg/injection, schedule: Q01DX005 (ip), vehicle: other): 152 % of control
T/C (endpoint: mean survival time, dose: 3.13 mg/kg/injection, schedule: Q01DX005 (ip), vehicle: water): 209 % of control
T/C (endpoint: mean survival time, dose: 6.25 mg/kg/injection, schedule: Q01DX005 (ip), vehicle: other): 156 % of control
T/C (endpoint: mean survival time, dose: 6.25 mg/kg/injection, schedule: Q01DX005 (ip), vehicle: water): 124 % of control
T/C (endpoint: mean survival time, dose: 12.0 mg/kg/injection, schedule: Q01DX009 (ip), vehicle: saline): 157 % of control
T/C (endpoint: mean survival time, dose: 12.5 mg/kg/injection, schedule: Q01DX005 (ip), vehicle: other): 90 % of control

COc1ccccc1NC(=O)Oc1ccc(OCc2ccccc2)cc1
T/C [7]: 94 % of control
T/C [5]: 108 % of control
T/C [8]: 88 % of control
T/C [6]: 100 % of control
T/C [9]: 87 % of control
T/C [10]: 95 % of control

CCCCCCCCCCOC(=O)Nc1cccc(O)c1
T/C [5]: 95 % of control
T/C [6]: 95 % of control
T/C [10]: 98 % of control

COC(=O)c1cc(N(CCCl)CCCl)ccc1N=Nc1ccc([N+](=O)[O-])cc1
T/C (endpoint: mean survival time, dose: 100.0 mg/kg/injection, schedule: Q04DX003 (ip), vehicle: Klucel (hydroxypropylcellulose) (HPC)): 109 % of control
T/C (endpoint: mean survival time, dose: 200.0 mg/kg/injection, schedule: Q04DX003 (ip), vehicle: Klucel (hydroxypropylcellulose) (HPC)): 115 % of control
T/C (endpoint: mean survival time, dose: 400.0 mg/kg/injection, schedule: Q04DX003 (ip), vehicle: Klucel (hydroxypropylcellulose) (HPC)): 117 % of control

C=C1C(=O)OC2/C=C(\C)CC/C=C(/C=O)C(OC(=O)C(C)C)C(O)C12 (configuration not stated)
T/C (endpoint: mean survival time, dose: 1.0 mg/kg/injection, schedule: Q01DX009 (ip), vehicle: saline with Tween-80): 113 % of control and 103 % of control
T/C (endpoint: mean survival time, dose: 2.0 mg/kg/injection, schedule: Q01DX009 (ip), vehicle: saline with Tween-80): 103 % of control and 105 % of control and 107 % of control
T/C (endpoint: mean survival time, dose: 4.0 mg/kg/injection, schedule: Q01DX009 (ip), vehicle: saline with Tween-80): 97 % of control and 100 % of control and 107 % of control
T/C [15]: 102 % of control and 109 % of control and 112 % of control
T/C (endpoint: mean survival time, dose: 16.0 mg/kg/injection, schedule: Q01DX009 (ip), vehicle: saline with Tween-80): 92 % of control and 96 % of control

O=C(/C=C/c1ccccc1)NC(=S)Nc1cc(Cl)ccc1Cl
T/C [16]: 95 % of control
T/C (endpoint: mean survival time, dose: 100.0 mg/kg/injection, schedule: Q01DX001 (ip), vehicle: saline with Tween-80): 90 % of control
T/C [7]: 112 % of control and 98 % of control and 100 % of control
T/C (endpoint: mean survival time, dose: 100.0 mg/kg/injection, schedule: Q04DX002 (ip), vehicle: saline with Tween-80): 95 % of control and 102 % of control
T/C [5]: 104 % of control
T/C [1]: 100 % of control
T/C [8]: 97 % of control and 98 % of control and 105 % of control
T/C (endpoint: mean survival time, dose: 200.0 mg/kg/injection, schedule: Q04DX002 (ip), vehicle: saline with Tween-80): 95 % of control and 110 % of control
T/C [6]: 104 % of control
T/C [2]: 105 % of control
T/C [9]: 115 % of control and 98 % of control and 100 % of control
T/C (endpoint: mean survival time, dose: 400.0 mg/kg/injection, schedule: Q04DX002 (ip), vehicle: saline with Tween-80): 105 % of control and 111 % of control
T/C [10]: 106 % of control

O=[As](O)(O)c1ccccc1[As](=O)(O)O
T/C [12]: 101 % of control
T/C [13]: 101 % of control
T/C [3]: 100 % of control

CCN(CC)C(=O)N1CC2CCC(C1)N2C
T/C [11]: 100 % of control

CCN=NNc1ccc(C)cc1
T/C [16]: 114 % of control
T/C [7]: 106 % of control
T/C [5]: 102 % of control
T/C [6]: 100 % of control

CC(C)C(Br)C(N)=O (configuration not stated)
T/C (endpoint: mean survival time, dose: 100.0 mg/kg/injection, schedule: Q01DX009 (ip), vehicle: saline sonified): 97 % of control
T/C (endpoint: mean survival time, dose: 200.0 mg/kg/injection, schedule: Q01DX009 (ip), vehicle: saline sonified): 89 % of control
T/C (endpoint: mean survival time, dose: 400.0 mg/kg/injection, schedule: Q01DX009 (ip), vehicle: saline sonified): 87 % of control

c1ccc(CCc2nc3ccccc3o2)cc1
T/C [5]: 98 % of control
T/C [6]: 102 % of control
T/C [10]: 93 % of control

OCC1OC(Sc2cc(Cl)ccc2Cl)C(O)C(O)C1O (configuration not stated)
T/C (endpoint: mean survival time, dose: 100.0 mg/kg/injection, schedule: Q01DX001 (ip), vehicle: saline): 103 % of control
T/C (endpoint: mean survival time, dose: 200.0 mg/kg/injection, schedule: Q01DX001 (ip), vehicle: saline): 100 % of control
T/C (endpoint: mean survival time, dose: 400.0 mg/kg/injection, schedule: Q01DX001 (ip), vehicle: saline): 100 % of control

Oc1ccc(C=NCCN=Cc2ccc(O)cc2O)c(O)c1
T/C [15]: 98 % of control
T/C (endpoint: mean survival time, dose: 12.0 mg/kg/injection, schedule: Q01DX009 (ip), vehicle: saline with Tween-80): 87 % of control
T/C (endpoint: mean survival time, dose: 18.0 mg/kg/injection, schedule: Q01DX009 (ip), vehicle: saline with Tween-80): 92 % of control
T/C [14]: 114 % of control and 96 % of control
T/C [7]: 87 % of control
T/C [5]: 87 % of control
T/C [10]: 88 % of control

Cc1ccc(NC(=O)Oc2cc(C)c(Cl)cc2C)c([N+](=O)[O-])c1
T/C (endpoint: mean survival time, dose: 100.0 mg/kg/injection, schedule: Q01DX009 (ip), vehicle: Klucel (hydroxypropylcellulose) (HPC)): 106 % of control
T/C (endpoint: mean survival time, dose: 200.0 mg/kg/injection, schedule: Q01DX009 (ip), vehicle: Klucel (hydroxypropylcellulose) (HPC)): 95 % of control
T/C (endpoint: mean survival time, dose: 400.0 mg/kg/injection, schedule: Q01DX009 (ip), vehicle: Klucel (hydroxypropylcellulose) (HPC)): 92 % of control
